Measurements: patent US11723589B2 (The General Hospital Corporation, priority 2010, dated 2023)
Several values for one entry are separate records, joined by “and”; a condition that tells them apart may be missing. Equal entries are not always repeated. Entries after “also recorded” stand apart in the source; their conditions may differ.

Legend:
Format in all cases: in vivo, rat
Male Sprague-Dawley rats [1] = test: Return of righting during continuous isoflurane general anesthesia
From the text: Anesthetizing Protocol. Rats were anesthetized in an induction chamber with 2-3% isoflurane in oxygen prior to placement of a lateral tail vein intravenous catheter (24 gauge, 19 mm). A rectal temperature probe was inserted and the animal was placed in a cylindrical acrylic anesthetizing chamber. The chamber was custom-built and equipped with ports for anesthetic gas delivery, sampling, and scavenging, as well as intravenous drug administration. A heating pad was placed under the chamber to keep the animal warm, and the body temperature was kept between 36.5° C. and 37.4° C.
The rat was positioned supine in the anesthetizing chamber and the inhaled concentration of isoflurane was initially fixed at 2.0% for 20 minutes, then reduced to 0.8% over 15-20 minutes, and then maintained at 0.8% for 40 minutes. If the rat made any purposeful movement, the isoflurane concentration was increased by 0.1% and maintained for another 40 minutes. This process was repeated until the final dose of isoflurane sufficient to maintain loss of righting reflex was established, and this dose was administered throughout the remainder of the experiment. This protocol was based on previously published methods described by Alkire et al.^4,11 After the final 40-minute equilibration period, normal saline (2 ml) was administered and the rectal temperature probe was removed. Five minutes later, methylphenidate was administered.
Prism 4.03 (Graphpad Software, San Diego, Calif.) and Matlab (Mathworks, Natick, Mass.) were used for statistical analysis and where possible, results are reported in terms of 95% confidence intervals based on z-tests, t-tests or Mann-Whitney tests. […] For this computation the inventors assumed a binomial model as the sampling density or likelihood function for the propensity of animals in a given group to have return of the righting response. The inventors took as the prior density for each group the uniform density on the interval (0, 1) because it is uninformative. Because of the conjugacy between the prior and the likelihood the posterior density for each group is a beta density.^17 The posterior densities for the differences in the proportion of animals that had return of righting were then computed by using standard Matlab simulation procedures. Instead of p-values for the Bayesian analyses the inventors computed the posterior probability that the propensity to right was greater in on group compared to the other.

Male Sprague-Dawley rats [2] = test: Hemodynamic recordings (mean arterial blood pressure, heart rate) during isoflurane general anesthesia; conditions: individual animals, isoflurane 1.5%
Description: Arterial Blood Gas and Hemodynamic Recordings. Rats with femoral artery catheters (Charles River Laboratories, Wilmington, Mass.) were placed in the anesthetizing chamber after lateral tail vein IV catheter placement. The isoflurane dose was kept constant at 1.5%. Mean arterial blood pressure and heart rate were measured using a pressure transducer (TruWave, Edwards Life Sciences, Irvine, Calif.) interfaced with a custom-built amplifier (AD620 operational amplifier, Jameco Electronics, Belmont, Calif.). […] Samples were promptly analyzed using CG4+ cartridges in a Vetscan iStat 1 (Abaxis, Union City, Calif.) blood gas analyzer.

Male Sprague-Dawley rats [3] = test: Time to emergence after a standardized isoflurane general anesthetic
From the text: Animal Care and Use. Animal studies were approved by the Subcommittee on Research Animal Care, Massachusetts General Hospital, Boston, Mass. Male Sprague-Dawley rats (Charles River Laboratories, Wilmington, Mass.) weighing 351-565 grams were used. […] Separate groups of animals were used for the electroencephalogram (4 rats), plethysmography (4 rats), and blood gas studies (6 rats). In animals that underwent multiple experiments, each animal was provided with at least 3 days of rest between experiments. Animals were kept on a standard day-night cycle (lights on at 7 AM, and off at 7 PM), and all experiments were performed during the day.
Preparation and Delivery of Drugs. […] Droperidol was diluted in normal saline to a final volume of 0.5 ml prior to administration. […]

[4] = after vs before methylphenidate 5 mg/kg IV, listed as Methylphenidate

SMILES: COC(=O)[C@H](c1ccccc1)[C@H]1CCCCN1 (racemic) [methylphenidate]
- median time to righting after methylphenidate (Male Sprague-Dawley rats [1]; 0.5 mg/kg IV, continuous inhalation of isoflurane): 348 s
- median time to righting after methylphenidate (Male Sprague-Dawley rats [1]; 5 mg/kg IV, continuous inhalation of isoflurane): 181 s
- median difference in time to righting between 0.5 and 5 mg/kg (Male Sprague-Dawley rats [1]; continuous inhalation of isoflurane): 173 s
- return of righting after droperidol pretreatment (Male Sprague-Dawley rats [1]; droperidol 0.5 mg/kg IV five minutes before methylphenidate 5 mg/kg IV, continuous isoflurane, n=6): None of these animals had return of righting; also recorded: did not induce return of righting in any of the six animals
- signs of arousal (Male Sprague-Dawley rats [1]; methylphenidate 0.05 mg/kg IV, continuous isoflurane, six rats): no signs of arousal
- return of righting (rats) (Male Sprague-Dawley rats [1]; methylphenidate 0.5 mg/kg IV, continuous isoflurane): 11 of 12
- return of righting (rats) (Male Sprague-Dawley rats [1]; methylphenidate 5 mg/kg IV after normal saline, continuous isoflurane): 11 of 12
- time to purposeful movements (Male Sprague-Dawley rats [1]; methylphenidate 5 mg/kg, all 12 rats, continuous isoflurane): ≤ 30 s
- Change in HR (mean) (Male Sprague-Dawley rats [2]; after vs before methylphenidate 5 mg/kg IV): 6 beats per minute and 15 beats per minute
- Change in HR (mean) (Male Sprague-Dawley rats [2]; [4]): −14.2 beats per minute and −7.2 beats per minute and +13.9 beats per minute and +0.72 beats per minute and +0.5 beats per minute and −2.6 beats per minute
- Change in MAP (mean) (Male Sprague-Dawley rats [2]; [4]): +20.5 mmHg and +8.3 mmHg and +3.2 mmHg and −1.4 mmHg and +0.5 mmHg and +7.4 mmHg
- HR after 5 mg/kg IV Methylphenidate (mean) (Male Sprague-Dawley rats [2]): 386.8 beats per minute and 383.3 beats per minute and 365.5 beats per minute and 360.0 beats per minute and 358.6 beats per minute
- MAP after 5 mg/kg IV Methylphenidate (mean) (Male Sprague-Dawley rats [2]): 117.1 mmHg and 90.9 mmHg and 91.3 mmHg and 85.2 mmHg and 100.7 mmHg and 90.8 mmHg
- median time to emergence (termination of isoflurane to return of righting) (Male Sprague-Dawley rats [3]; methylphenidate 5 mg/kg IV five minutes before end of 45 min isoflurane 1.5%, n=12): 91 s
- median difference in time to emergence versus normal saline (Male Sprague-Dawley rats [3]; methylphenidate 5 mg/kg IV, isoflurane 1.5%): 200 s
